Assay: Solubility of fatty acid sodium salts and salt precipitation/anion exchange with Dutogliptin tartrate
Type: physicochemical
Conditions: for Solubility 2-8° C. / Solubility 25° C.: volume for the stated amount of substance (0.41 mmol Dutogliptin tartrate, 0.83 mmol fatty acid salts); for Precipitation after addition of Dutogliptin tartrate solution: 100 mg/ml Dutogliptin tartrate solution, 2-8° C.
Description: Assuming that the ion lattice of Dutogliptin tartrate (dissolved in water) is pulled apart so that the individual Dutogliptin and tartrate ions are in solution, an exchange should take place by adding excess fatty acid anions. The resulting hydrophobic salt should form and precipitate due to reduced solubility.
To promote the exchange, the salts, which were dissolved at room temperature, were cooled to 2-8° C. after the addition of Dutogliptin tartrate and stirred overnight.
Five different physiologic fatty acids (as sodium salts) were prepared by anion exchange of the tartrates with a double molar addition of the salts at a reduced temperature (reduced Dutogliptin tartrate solubility).

[1] = listed as sodium cholate, hydrate

CCCCCCCCCCCCCC(=O)[O-].[Na+] [Sodium Myristate]
Solubility 2-8° C.: not soluble | Solubility 25° C.: >10 mL

CCCCCCCCCCCC(=O)[O-].[Na+] [Sodium Laurate]
Solubility 2-8° C.: not soluble | Solubility 25° C.: 10 mL

C[C@H](CCC(=O)[O-])[C@H]1CC[C@H]2[C@@H]3[C@H](O)C[C@@H]4C[C@H](O)CC[C@]4(C)[C@H]3C[C@H](O)[C@]12C.O.[Na+] [Sodium cholate hydrate]
Precipitation after addition of Dutogliptin tartrate solution (hydrate): no precipitation | Precipitation after addition of Dutogliptin tartrate solution [1]: no visual evidence of turbidity or precipitation | Solubility 25° C.: 5 mL | Solubility 2-8° C. (hydrate): 5 mL, clear | Solubility 2-8° C. [1]: remained sufficient soluble
